# Measured values: US9295667B2, “Pharmaceutical composition for preventing or treating diabetes or fatty liver containing a CYP4A inhibitor as an active ingredient” (Korea Basic Science Institute, priority 2011, dated 2016)
# What was measured:
# [1] = system: C57BL/6J mice; assay: Liver triglyceride (TG) level in C57BL/6J mice; format: in vivo; conditions: normal wild type C57BL/6J mice, 5 mg/kg/day intraperitoneal, 2 weeks
# Method: (§1) While the mice were sacrificed, their blood was obtained with their hearts being punctured. The concentration of serum insulin was determined by using a commercial mouse serum insulin ELISA kit (Shibayagi Co., Ltd.) according to the manufacturer's instructions. Lipid peroxidation was measured by using OxiSelect™ TBARS Assay Kit (Cell Biolabs, Inc.) to quantify malondialdehyde (MDA), a natural by-product of lipid peroxidation in the liver homogenates. The level of triglyceride in the mice livers was measured by using Triglyceride Quantification Kit (Abcam).
# [2] = system: cleaved Caspase-3 and -9, Bax and Bcl-2; assay: Apoptosis markers by Western blotting in liver of db/db mice; format: in vivo; conditions: 5 mg/kg/day intraperitoneal, 2 weeks
# Method: (§2) Male C57BL/6J and C57BL/KsJ-db/db mice were purchased from Japan SLC. HET0016 (5 mg/kg/day) and clofibrate (400 mg/kg/day) were injected intraperitoneally into eight (8)-week-old mice for two (2) weeks. Control littermate mice for HET0016 were treated with DMSO, while control littermate mice for clofibrate were treated with corn oil. Intraperitoneal glucose tolerance test (IPGTT) was performed after overnight fasting followed by intraperitoneal injection of lg/kg of glucose dissolved in PBS. The concentrations of blood glucose were measured using a One Touch Ultra glucometer (LifeScan, Inc.) before (0 min) and at 15, 30, 60, 90 and 120 min. after glucose injection. Livers isolated from 10-week-old mice were fixed in 10% neutral buffered formalin solution (Sigma), and paraffin sections were stained with hematoxylin-eosin.
# (§3) Proteins were denatured at 95° C., and separated by SDS-PAGE, followed by electroblotting on a membrane made of nitrocellulose (NC) or polyvinylidene difluoride (PVDF). After blocking in TBST (Tris-buffered Saline, 0.1% Tween-20) containing 5% non-fat milk (skim milk) or 5% bovine serum albumin (BSA), the membrane was incubated with labeled primary antibodies. Subsequently, the membrane was washed with TBST and further incubated with secondary antibodies coupled with horseradish peroxides. Protein blots were detected by using ECL kit and visualized by a luminescence imaging analyzer of LAS-4000 mini system and software (FujiFilm). Following antibodies were utilized: mouse anti-β-actin (sc-47778), rabbit anti-CYP4A (sc-98988, Santa Cruz Biotechnology), mouse anti-ATF6 (IMG-273, Imgenex), mouse anti-eIF2α (ab5369), rabbit anti-phospho-eIF2α Ser51 (ab32157), rabbit anti-IRE1 (ab37073, Abcam), rabbit anti-PERK(#3192), rabbit anti-phospho-PERK Thr980 (#3179), rabbit anti-BiP (#3177), mouse anti-CHOP (#2895), rabbit anti-SAPK/JNK (#9252), rabbit anti-phospho-SAPK/JNK […] (#9251), rabbit anti-Insulin receptor β (#3025), rabbit anti-phospho-Insulin receptor β Tyr1150/1151 (#3024), rabbit anti-Akt (#4691), rabbit anti-phospho-Akt Ser473 (#4060), rabbit anti-Bcl-2 (#2876), rabbit anti-Bax (#2772), rabbit anti-divided caspase-3 (#9664), rabbit anti-divided caspase-9 (#9509), rabbit anti-Bax (#2772, Cell Signaling Technology), rabbit anti-ERP72 (obtained from Dr. O. Y. Kwon, College of Medicine, Chungnam National University).
# [3] = system: db/db mice; assay: TBARS assay of MDA formation (lipid peroxidation) in liver of db/db mice; format: in vivo; conditions: 5 mg/kg/day intraperitoneal, 2 weeks
# Method: as §1
# [4] = system: C57BL/6J mice; assay: Liver tissue sections, hematoxylin-eosin staining, C57BL/6J mice; format: in vivo; conditions: normal wild type C57BL/6J mice, 5 mg/kg/day intraperitoneal, 2 weeks
# Method: as §2
# [5] = system: C57BL/6J mice; assay: IPGTT in normal C57BL/6J mice; format: in vivo; conditions: normal wild type C57BL/6J mice, same doses as db/db mice (5 mg/kg/day intraperitoneal, 2 weeks)
# Method: as §2
# [6] = system: C57BL/6J mice; assay: Serum insulin ELISA in normal C57BL/6J mice; format: in vivo; conditions: normal wild type C57BL/6J mice, 5 mg/kg/day intraperitoneal, 2 weeks
# Method: as §1
# [7] = system: db/db mice; assay: Serum insulin ELISA in db/db mice; format: in vivo; conditions: 5 mg/kg/day intraperitoneal, 2 weeks
# Method: as §1
# [8] = system: db/db mice; assay: Intraperitoneal glucose tolerance test (IPGTT) in db/db mice; format: in vivo; conditions: 5 mg/kg/day intraperitoneal, 2 weeks, 1 g/kg glucose
# Method: as §2
# [9] = system: db/db mice; assay: Liver tissue sections, hematoxylin-eosin staining, db/db mice; format: in vivo; conditions: 5 mg/kg/day intraperitoneal, 2 weeks
# Method: as §2
# [10] = system: insulin receptor (IR) and Akt; assay: In vivo insulin signaling (phosphorylation of IR and Akt) in liver of db/db mice; conditions: 5 mg/kg/day intraperitoneal, 2 weeks
# Method: as §2
# Proteins were denatured at 95° C., and separated by SDS-PAGE, followed by electroblotting on a membrane made of nitrocellulose (NC) or polyvinylidene difluoride (PVDF). After blocking in TBST (Tris-buffered Saline, 0.1% Tween-20) containing 5% non-fat milk (skim milk) or 5% bovine serum albumin (BSA), the membrane was incubated with labeled primary antibodies. […] Protein blots were detected by using ECL kit and visualized by a luminescence imaging analyzer of LAS-4000 mini system and software (FujiFilm). […]
# [11] = system: ER stress markers (PERK, phospho-eIF2α, CHOP, phospho-JNK); assay: Western blotting of ER stress markers in liver tissues of db/db mice; format: in vivo; conditions: 5 mg/kg/day intraperitoneal, 2 weeks
# Method: as §2
# Liver microsomes were prepared from fresh mice livers by applying a slight modification to the above described methods. Separated livers were thoroughly sprinkled with 1.15% KCl solution. Subsequently, the livers were homogenized with 4 times volume of a homogenizing buffer (0.1 M Tris-HCl, pH 7.4; 0.1 M KCl; […], pH 7.5; 25 μM butylated hydroxyltoluene). In order to remove un-destructed cells, nuclei and mitochondria, the obtained homogenate was centrifuged in a low-powered centrifugation (1,000× g, 4° C. for 15 min.) The obtained supernatant was then centrifuged in a higher powered centrifugation (100,000× g, 4° C. for 60 min.), resulting in the precipitation of microsomes. Pellets of compactly packed microsomes were re-suspended in 3 ml of an ice-cooled pyrophosphate buffer (0.1 M potassium pyrophosphate; 1 mM EDTA, pH 7.5; 20 μM butylated hydroxyltoluene) by using a homogenizer, followed by further centrifugation at 100,000× g, 4° C. for 60 min. The washed microsome pellets were finally suspended in 2 ml of an ice-cooled microsome buffer (10 mM Tris-HCl, pH 7.4; 1 mM EDTA, pH 7.5; 20% glycerol).
# Proteins were denatured at 95° C., and separated by SDS-PAGE, followed by electroblotting on a membrane made of nitrocellulose (NC) or polyvinylidene difluoride (PVDF). After blocking in TBST (Tris-buffered Saline, 0.1% Tween-20) containing 5% non-fat milk (skim milk) or 5% bovine serum albumin (BSA), the membrane was incubated with labeled primary antibodies. Subsequently, the membrane was washed with TBST and further incubated with secondary antibodies coupled with horseradish peroxides. Protein blots were detected by using ECL kit and visualized by a luminescence imaging analyzer of LAS-4000 mini system and software (FujiFilm). […]
# [12] = system: human hepatoma HepG2 cells; assay: Tunicamycin-induced ER stress in HepG2 cells, Western blotting; format: cell-based; conditions: 4 μg/ml tunicamycin, combined treatment HET0016, 6 hours
# Method: HepG2 cells were cultured in a Dulbecco's Modified Eagle Medium (DMEM, Gibco) Low Glucose supplemented with heat-inactivated 10% fetal bovine serum (FBS) and antibiotics at 37° C. in the presence of 5% moisturized CO2 and 95% air. The above cells were plated in a concentration of 3×10^4 cells/cm^2 and maintained in the cell culture medium for 24 hours prior to the following chemical processing. […] As a control, HepG2 cells were treated with DMSO.
# as §3
# [13] = system: db/db mice; assay: Level of blood glucose following 6 hours' fasting in db/db mice; format: in vivo; conditions: 5 mg/kg/day intraperitoneal, 2 weeks
# Method: as §2, with “Intraperitoneal glucose tolerance test (IPGTT) was performed after overnight fasting followed by intraperitoneal injection of lg/kg of glucose dissolved in PBS.” left out
smiles,measurement,setting,value
"CCCCc1ccc(N=CNO)c(C)c1 [HET0016, N-hydroxy-N′-(4-butyl-2-methylphenyl)-formamidine]",hepatic steatosis (level of TG),[1],no differences
same,apoptosis of the diabetic liver tissues,[2],inhibited
same,expression of Bax,[2],suppressed
same,expression of Bcl-2,[2],increased
same,level of active forms of caspase-3 and -9,[2],reduced
same,increase of hepatic lipid peroxidation (MDA),[3],notably reduced
same,hepatic physiology (liver sections),[4],no differences
same,insulin resistance (IPGTT),[5],not altered
same,serum insulin level,[6],no differences
same,level of serum insulin,[7],notably reduced
same,insulin resistance (IPGTT),[8],significantly improved
same,severe hepatic steatosis,[9],relieved
same,phosphorylation of Akt,[10],increased
same,phosphorylation of insulin receptor (IR),[10],increased
same,activation of JNK,[11],markedly decreased
same,"activity of PERK downstream signaling (phosphorylation status of eIF2α, expression level of CHOP)",[11],reduced
same,expression of Cyp4a,[11],not changed
same,expression of PERK,[11],reduced
same,expression of PERK,[12],remarkably down-regulate
same,expression of phospho-JNK,[12],remarkably down-regulate
same,expression of phospho-eIF2α,[12],remarkably down-regulate
same,level of blood glucose,[13],decreased
